Here are results for 20 compounds from patent US20230212170A1, “INHIBITORS OF KRAS G12C PROTEIN AND USES THEREOF” (SHANGHAI ANTENGENE CORPORATION LIMITED, priority 2020, published 2023).

One assay addresses KRAS G12C (Homo sapiens, UniProt P01116, G12C). Put plainly: KRAS GDP FI assay. It counts as biochemical. To be noted: kinetic reading Ex580/Em620 for 120 min. The source says:
Assay 2: KRAS GDP FI Assay
1. Prepare compound dilution plate.
2. Transfer Inhibitor/DMSO to assay plate by Echo.
3. Prepare 1× assay buffer.
4. Prepare KRAS G12C mix & SOS1 mix & GTP mix & detection reagent mix.
5. Add KRAS G12C mix, SOS1 mix, GTP mix.
6. Add detection reagent mix to assay plate.

The test system of the next assay is MIA PaCa-2. The experiment in a line: Tumor cell anti-proliferation assay (CTG assay), MIA PaCa-2. It counts as cell-based. The following applies: read-out: IC50 MIA PaCa-2. The protocol: (§1) Assay 3: Tumor Cell Anti-Proliferation Assay (CTG Assay)
(§2) Tested tumor cell lines (MIA PaCa-2, NCI-H358, and A549) were seeded to the 96-well plate for overnight, then cells were treated with the test compound at 9 serially diluted concentrations in triplicate. After 3-days incubation with the test compound, the CTG assay was performed to evaluate the IC50. The 3 cell lines were tested in the same manner. Cisplatin were used as the positive control.
(§3) Day −1: Cell Plating for Cell Lines
(§4) 1. Adjust the cell concentration to the appropriated number with the medium, and for each well of a 96-well plate, add 90 μl cell suspensions (Cell concentration will be adjusted according to the data base or density optimization assay). 2. Incubate the plates for overnight in humidified incubator at […] with 5% CO2.
(§5) Day 0: T0 Plate Reading and Compound Treatment
(§6) 3. Add 10 μL culture medium to each well of plate A for T0 reading.
(§7) 4. Equilibrate the plate and its content at RT for approximately 30 min.
(§8) 5. Add 50 μL CellTiter-Glo® Reagent to each well for T0 reading.
(§9) 6. Mix contents for 2 minutes on an orbital shaker to facilitate cell lysis.
(§10) 7. Allow the plate to incubate at room temperature for 10 minutes to stabilize the luminescent signal. Note: Uneven luminescent signal within standard plates can be caused by temperature gradients, uneven seeding of cells or edge effects in multiwall plates.
(§11) 8. Place a black BackSeal sticker to the bottom of each plate.
(§12) 9. Record luminescence using an Envision Multi Label Reader.
(§13) 10. Dilute the test compound and the positive control (Cisplatin). Add 10 μL of 10× test compound working solutions into the corresponding wells. Incubate the test plates in the humidified incubator at 37° C. with 5% Co2.
(§14) Day 3: Plate Reading for 3-Day Assay
(§15) 11. Monitor under the microscope to make sure that the cells in control wells are healthy.
(§16) 12. After three days incubation, add 50 μL CellTiter-Glo® Reagent to each well.
(§17) 13. Mix contents for 2 minutes on an orbital shaker to facilitate cell lysis.
(§18) 14. Allow the plate to incubate at room temperature for 10 minutes to stabilize the luminescent signal.
(§19) 15. Note: Uneven luminescent signal within standard plates can be caused by temperature gradients, uneven seeding of cells or edge effects in multiwall plates.
(§20) 16. Place a black BackSeal sticker to the bottom of each plate.
(§21) 17. Record luminescence using an Envision Multi Label Reader.
(§22) In order to calculate IC50, a dose-response curve was fitted using nonlinear regression model with a sigmoidal dose response. The formula of the surviving rate is shown below, and the IC50 was automatically produced by GraphPad Prism 5.0.
(§23) The surviving rate […]=(LumTest compound−LumMedium control)/(LumNone treated-LumMedium control)×100%.
(§24) LumNone treated-LumMedium control is set as 100% o and LumMedium control is set as […]. T0 value will be presented as percentage of LumNone treated.

In another assay the test system is NCI-H358. The experiment in a line: Tumor cell anti-proliferation assay (CTG assay), NCI-H358. The format is cell-based. To be noted: read-out: IC50 NCI-H358. The method, then:
as §1, §2, §3, §4, §5, §6, §7, §8, §9, §10, §11, §12, §13, §14, §15, §16, §17, §18, §19, §20, §21, §22, §23, §24

[1] abbreviates: Homo sapiens, MIA PaCa-2, 72 h, MIA PaCa-2, 3-days incubation, CTG.
Where [2] appears, read: MIA PaCa-2, 3-days incubation, CTG.
Setting [3] is: NCI-H358, 3-days incubation, CTG.

Read-outs that look alike come from different tables or passages of the source.

As for `C=CC(=O)N1CCN(c2nc(OC[C@@H]3CCCN3C)nc3c(=O)n(-c4cccc5cccc(F)c45)c(C(F)(F)F)nc23)C[C@@H]1CC#N` [Example 37, 2-((S)-1-acryloyl-4-(7-(8-fluoronaphthalen-1-yl)-2-(((S)-1-methylpyrrolidin-2-yl)methoxy)-8-oxo-6-(trifluoromethyl)-7,8-dihydropyrimido[5,4-d]pyrimidin-4-yl)piperazin-2-yl) acetonitrile], the IC50 (commonly the concentration needed to halve the response being measured) at KRAS G12C was 178 nM. Turning to `C=CC(=O)N1CCN(c2nc(OC[C@@H]3CCCN3C)nc3c(=O)n(-c4cccc5cccc(Cl)c45)c(C)nc23)[C@@H](C)C1` (single isomer, unassigned) [Compound 26-a], the IC50 with MIA PaCa-2 (setting [1]) amounted to 4380 nM.

Regarding `C=CC(=O)N1CCN(c2nc(OC[C@@H]3CCCN3C)nc3c(=O)n(-c4cccc5cccc(Cl)c45)c(C(F)(F)F)nc23)[C@@H](C)C1` [Compound 24, 8-((S)-4-acryloyl-2-methylpiperazin-1-yl)-3-(8-chloronaphthalen-1-yl)-6-(((S)-1-methylpyrrolidin-2-yl)methoxy)-2-(trifluoromethyl)pyrimido[5,4-d] pyrimidin-4(3H)-one], the IC50 turned out to be 132 nM at KRAS G12C and 480 nM in the assay on MIA PaCa-2 (setting [1]). With `C=CC(=O)N1CCN(c2nc(OC[C@@H]3CCCN3C)nc3c(=O)n(-c4cccc5cccc(Cl)c45)c(CC)nc23)[C@@H](C)C1` (single isomer, unassigned) [Compound 27-a], the IC50 with MIA PaCa-2 (setting [1]) was determined as 2890 nM. Regarding `C=CC(=O)N1CCN(c2nc(OC[C@@H]3CCCN3C)nc3c(=O)n(-c4cccc5cccc(Cl)c45)c(C(F)(F)F)nc23)C[C@@H]1CC#N` (single isomer, unassigned) [Example 32-a], in the assay with MIA PaCa-2 (setting [1]), the IC50 is 3720 nM. For `C=CC(=O)N1CCN(c2nc(OC[C@@H]3CCCN3C)nc3c(=O)n(-c4cccc5cccc(Cl)c45)c(CC)nc23)[C@@H](C)C1` (single isomer, unassigned) [Compound 27-b], the IC50 at KRAS G12C was 900 nM; in the assay on MIA PaCa-2 (setting [2]) it was 2690 nM. Regarding `C=CC(=O)N1C[C@H](C)N(c2nc(OC[C@@H]3CCCN3C)nc3c(=O)n(-c4cn(C)c5ccccc45)c(C(F)(F)F)nc23)[C@@H](C)C1` [Example 43], the half-inhibitory concentration (IC50) in the assay on NCI-H358 (Homo sapiens, NCI-H358, 72 h) stood at 257 nM; in the assay on MIA PaCa-2 (Homo sapiens, MIA PaCa-2, 72 h), 766 nM. Take `C=CC(=O)N1CCN(c2nc(OC[C@@H]3C[C@@H](F)CN3C)nc3c(=O)n(-c4cccc5cccc(Cl)c45)c(C(F)(F)F)nc23)[C@@H](C)C1` (single isomer, unassigned) [Example 36-a]: inhibition at KRAS G12C was half-maximal at 155 nM (IC50). In the case of `C=CC(=O)N1CCN(c2nc(OC[C@@H]3CCCN3C)nc3c(=O)n(-c4cccc5cccc(Cl)c45)c(C)nc23)[C@@H](C)C1` (single isomer, unassigned) [Compound 26-b], the half-maximal inhibitory concentration (IC50) against KRAS G12C is 1500 nM; in the assay with MIA PaCa-2 (setting [2]), 2890 nM. In the case of `C=CC(=O)N1CCN(c2nc(OC[C@@H]3CCCN3C)nc3c(=O)n(-c4cccc5cccc(Cl)c45)c(C(F)(F)F)nc23)C[C@@H]1CC#N` (single isomer, unassigned) [Example 32-b], the IC50 worked out at 83 nM at KRAS G12C and 188 nM with MIA PaCa-2 (setting [2]). Consider `C=CC(=O)N1CCN(c2nc(OC[C@@H]3CCCN3C)nc3c(=O)n(-c4cccc5cccc(Cl)c45)c(C(F)(F)F)nc23)[C@@H](C)C1` (single isomer, unassigned) [Compound 24-a], for which, in the assay with NCI-H358 (setting [3]), the IC50 amounted to 407 nM. As to `C=CC(=O)N1CCN(c2nc(OC[C@@H]3CCCN3C)nc3c2CCCC(c2c(C)ccc4[nH]ncc24)C3)C[C@@H]1CC#N` (stereo partly drawn) [Example 30, 2-((2S)-1-acryloyl-4-(8-(5-methyl-1H-indazol-4-yl)-2-(((S)-1-methylpyrrolidin-2-yl)methoxy)-6,7,8,9-tetrahydro-5H-cyclohepta[d]pyrimidin-4-yl)piperazin-2-yl)acetonitrile], the IC50 against KRAS G12C turned out to be 124 nM; in the assay with MIA PaCa-2 (setting [1]), 72.7 nM. Turning to “2-((S)-1-acryloyl-4-(7-(8-chloronaphthalen-1-yl)-2-(((2S,4R)-4-fluoro-1-methylpyrrolidin-2-yl) [Compound 25-b]”, the IC50 stood at 37 nM at KRAS G12C and 1120 nM in the assay with MIA PaCa-2 (setting [2]). In turn, `C=CC(=O)N1CCN(c2nc(OC[C@@H]3CCCN3C)nc3c(=O)n(-c4cccc5cccc(C)c45)c(-c4ccccc4)nc23)C[C@@H]1CC#N` [Example 39, 2-((S)-1-acryloyl-4-(7-(8-methylnaphthalen-1-yl)-2-(((S)-1-methylpyrrolidin-2-yl)methoxy)-8-oxo-6-phenyl-7,8-dihydropyrimido[5,4-d]pyrimidin-4-yl)piperazin-2-yl)acetonitrile] displayed an IC50 at KRAS G12C of 364 nM. On to `C=CC(=O)N1CCN(c2nc(OC[C@@H]3CCCN3C)nc3c(=O)n(-c4ccccc4F)c(C(F)(F)F)nc23)[C@@H](C)C1` (single isomer, unassigned) [Example 40-b], for which the midpoint of inhibition against KRAS G12C, the IC50, lay at 405 nM. Turning to `C=CC(=O)N1CCN(c2nc(OC[C@@H]3CCCN3C)nc3c(=O)n(-c4cccc5cccc(Cl)c45)c(C(F)(F)F)nc23)[C@@H](C)C1` (single isomer, unassigned) [Compound 24-b], in the assay on NCI-H358 (setting [3]), the IC50 came to 1460 nM. On to “2-((S)-1-acryloyl-4-(7-(8-chloronaphthalen-1-yl)-2-(((2S,4R)-4-fluoro-1-methylpyrrolidin-2-yl) [Compound 25-a]”, for which the IC50 in the assay on MIA PaCa-2 (setting [2]) was more than 10 nM. With `C=CC(=O)N1C[C@H](C)N(c2nc(OC[C@@H]3CCCN3C)nc3c(=O)n(-c4cccc5cccc(Cl)c45)c(C(F)(F)F)nc23)[C@@H](C)C1` (single isomer, unassigned) [Example 29-a], the concentration for half-maximal inhibition (IC50) in the assay on NCI-H358 (setting [3]) turned out to be 148 nM; against KRAS G12C, 89 nM. For `C=CC(=O)N1C[C@H](C)N(c2nc(OC[C@@H]3CCCN3C)nc3c(=O)n(-c4cccc5cccc(Cl)c45)c(C)nc23)[C@@H](C)C1` [Compound 28, 8-((2S,6S)-4-acryloyl-2,6-dimethylpiperazin-1-yl)-3-(8-chloronaphthalen-1-yl)-2-methyl-6-(((S)-1-methylpyrrolidin-2-yl)methoxy)pyrimido[5,4-d]pyrimidin-4(3H)-one], the half-inhibitory concentration (IC50) against KRAS G12C came to 190 nM; with MIA PaCa-2 (setting [1]) it was 1500 nM. Take `C=CC(=O)N1CCN(c2nc(OC[C@@H]3CCCN3C)nc3c(=O)n(-c4c(F)cccc4OC)c(C(F)(F)F)nc23)C[C@@H]1CC#N` [Example 38, 2-((S)-1-acryloyl-4-(7-(2-fluoro-6-methoxyphenyl)-2-(((S)-1-methylpyrrolidin-2-yl)methoxy)-8-oxo-6-(trifluoromethyl)-7,8-dihydropyrimido[5,4-d]pyrimidin-4-yl)piperazin-2-yl)acetonitrile]: half-maximal inhibition against KRAS G12C (IC50) was put at 494 nM.
